Measured values: PMC7898822, “RNA‐PROTACs: Degraders of RNA‐Binding Proteins” (Angewandte Chemie (International Ed. in English), 2020)

How the values were obtained:
Lin28B = assay: Confocal microscopy, LIN28B level in K562 cells; assay type: cell-based, human; settings: FAM labelled ORN3P1, 1 µM, 24 h
Lin28A [1] = assay: Western blot of Lin28A in NT2/D1 cells; assay type: cell-based, human; settings: 2 μM, three independent experiments
Excerpt: (§1) Finally, we tested RNA‐PROTACs for their ability to degrade their target in two cell lines: the embryonic NT2/D1 cell line, which expresses high levels of Lin28A, ^[13a] and K562 cells which express Lin28A and Lin28B. […] Finally, we co‐treated K562 cells with ORN3P1 and MG132, a reversible inhibitor of the 26S proteasome. […] In order to explore the versatility of RNA‐PROTACs with non peptide‐based VHL ligands, we conjugated small‐molecule VH032 ^[38] to ORN3 via an amino linker to yield ORN3VH032 (Figure S1). […]

Lin28A [2] = assay: Western blot of Lin28A in K562 cells; assay type: cell-based, human
Excerpt: as §1

QKI (pDEST-Myc-QKI) = assay: Ubiquitination assay of Myc-QKI (negative control RBP) in 22Rv1 cells; assay type: cell-based; settings: pDEST-Myc-QKI and HA-Ub, 500 nM, 48 h
Description: Next, we investigated the ability of ORN3P1 and ORN7P1 to mediate ubiquitination of Lin28 in cells, using a previously described protocol. ^[32] Cells from the prostate cancer cell line 22RV1, which express very low levels of Lin28, were co‐transfected with two plasmids expressing pCMV‐myc‐Lin28A and HA‐tagged polyubiquitin (HA‐Ub).
After 48 h of incubation with ORN3P1 and ORN7P1, the tagged Lin28 (and the control QKI) was immunoprecipitated using an anti‐Myc antibody. The isolated protein was then analyzed by western blotting using the anti‐HA and anti‐c‐Myc antibodies. Consistent with other previously described PROTAC reagents,[ ^32 , ^33 ]
The protein extracts (12-17 µg) were run on a 4-20% SDS-PAGE and transferred on a nitrocellulose blotting membrane 0.22 µm (GE Healthcare) using the Trans-Blot transfer device (Biorad). Membranes were blocked with 5% milk and incubated with the primary antibody overnight at 4 °C. Membranes were washed with 0.05% PBS-T and reacted with the secondary antibody for 1 h in 5% milk. The proteins were detected using the anti-lin28a antibody (Cell Signaling technology, D9F5), anti-lin28b antibody (Cell Signaling technology, 4196S), anti-rbfox1 (NovusBio, NBP2-13169SS), at 1:1000 and anti-hrnp c antibody […]
(Abcam, AB133607) at 1:10000 dilutions. […]
on a ChemiDoc MP imager (Biorad). The intensity of the signal was quantified using the ImageJ-Fiji software. […]

Lin28A [3] = assay: Confocal microscopy, LIN28A level in K562 cells; assay type: cell-based, human; settings: FAM labelled ORN3P1, 1 µM, 24 h

CC[C@H](C)[C@H](NC(=O)[C@H](Cc1ccc(O)cc1)NC(=O)[C@@H]1C[C@@H](O)CN1C(=O)[C@H](C)NC(=O)[C@H](CC(C)C)NC(=O)CCCCCNC(=O)[C@@H](N)CSC1CC(=O)N(CCOP(=O)(S)OC[C@H]2O[C@@H](n3cnc4c(N)ncnc43)[C@H](OCCOC)[C@@H]2OP(=O)(S)OC[C@H]2O[C@@H](n3cnc4c(=O)[nH]c(N)nc43)[C@H](OCCOC)[C@@H]2OP(=O)(S)OC[C@H]2O[C@@H](n3cnc4c(=O)[nH]c(N)nc43)[C@H](OCCOC)[C@@H]2OP(=O)(S)OC[C@H]2O[C@@H](n3cnc4c(N)ncnc43)[C@H](OCCOC)[C@@H]2OP(=O)(S)OC[C@H]2O[C@@H](n3cnc4c(=O)[nH]c(N)nc43)[C@H](OCCOC)[C@@H]2OP(=O)(S)OC[C@H]2O[C@@H](n3cnc4c(N)ncnc43)[C@H](OCCOC)[C@@H]2OP(=O)(S)OC[C@H]2O[C@@H](n3cc(C)c(=O)[nH]c3=O)[C@H](OCCOC)[C@@H]2O)C1=O)C(=O)O (stereo partly drawn) [ORN3P1]
LIN28B by confocal microscopy (Lin28B): relatively unaffected | reduction of Lin28A (Lin28A [1]): ~50% | Lin28A suppression with MG132 co-treatment (Lin28A [2]; K562 cells co-treated with 100 nM MG132, 48 h): largely attenuated Lin28A suppression | suppression of Lin28A (Lin28A [2]; K562 cells, highest concentration, 48 h, western blot, three independent experiments): 50% | ubiquitination of QKI (QKI (pDEST-Myc-QKI)): showed no such effects | LIN28A degradation by confocal microscopy (Lin28A [3]): LIN28A is degraded
